The source of these data is ChEMBL document CHEMBL1143910, “Synthesis of guanidino analogues of PMPDAP and their immunobiological activity” (Bioorg Med Chem, 2008).

Calls of active or inactive are those of the source. No cut-off for these calls is given here.

The subject of series [1] is Macrophage. Description: Increase in IFN-gamma stimulated nitric oxide production in C57BL/6 mouse peritoneal macrophages at 100 uM after 24 hrs. The series is classed as functional, cell-based.
The next series concerns L929. Kind of series: Cytotoxicity against mouse L929 cells. The series is classed as cell-based.
The next series relates to L1210. Kind of series: Cytotoxicity against mouse L1210 cells. In kind it is cell-based.
Series [2] in a line: Cytotoxicity against human HeLaS3 cells. In kind it is cell-based. As to conditions: hela s3.
In a further series the test system is Maize streak virus. Kind of series: Antiviral activity against MSV. The series is classed as functional.
Series [3] deals with Human immunodeficiency virus 1. Description: Antiviral activity against HIV1. In kind it is functional, organism-based.
Series [4] deals with Human immunodeficiency virus 2. Description: Antiviral activity against HIV2. The series is classed as functional, organism-based.
Series [5] in a line: Activation of TNFalpha secretion in C57BL/6 mouse peritoneal macrophages at 100 uM after 16 hrs by ELISA. The settings on record: Macrophage. In kind it is functional, cell-based.
Series [6] relates to Macrophage. Description: Activation of MIP1-alpha secretion in C57BL/6 mouse peritoneal macrophages at 100 uM after 16 hrs by ELISA. In kind it is functional, cell-based.
Series [7] relates to Macrophage. Description: Activation of RANTES secretion in C57BL/6 mouse peritoneal macrophages at 100 uM after 16 hrs by ELISA. The series is classed as functional, cell-based.
The test system of series [8] is PBMC. Kind of series: Activation of MIP1-alpha secretion in human PBMC at 50 uM after 16 hrs by ELISA. In kind it is functional, cell-based.
The subject of series [9] is PBMC. Description: Activation of RANTES secretion in human PBMC at 50 uM after 16 hrs by ELISA. In kind it is functional, cell-based.
For series [10], the system named is Macrophage. Description: Increase in IFN-gamma stimulated nitric oxide production in C57BL/6 mouse peritoneal macrophages at 10 to 25 uM after 24 hrs. In kind it is functional, cell-based.

Consider `C[C@@H](Cn1cnc2c(N=C(N)N)ncnc21)OCP(=O)(O)O`, for which the result (in the series on Macrophage [1]; with Maize streak virus; in [3]; in series [4]) was inactive. Further, the Activity entry (in the series on L929; in the series with L1210; in [2]) was “Not Active” throughout.
Take `C[C@H](Cn1cnc2ncnc(N=C(N)N)c21)OCP(=O)(O)O`: the result (in the series with Macrophage [1]; in the series with Maize streak virus; in series [3]; in [4]) was inactive. For the same molecule, the Activity entry (in the series with L929; in the series with L1210; in [2]) was “Not Active” throughout.
On to `C[C@@H](Cn1cnc2c(N)nc(N=C(N)N)nc21)OCP(=O)(O)O`, for which the outcome (in the series on Macrophage [1]; in the series on Maize streak virus; in series [3]; in series [4]) was inactive. In addition, the Activity entry (in the series with L929; with L1210; in [2]) was “Not Active” in each case.
On to `C[C@@H](Cn1c(N=C(N)N)nc(N)c2ncnc1-2)OCP(=O)(O)O`, for which the result (in the series with Macrophage [1]; in series [5]; in the series with Macrophage [6]; with Macrophage [7]; in the series on PBMC [8]; in the series with PBMC [9]) was Active. The result with Macrophage [10] was Active. Besides, the Activity entry (in the series with L929; in the series on L1210; in series [2]) was “Not Active” throughout. Besides, the outcome (with Maize streak virus; in series [3]; in series [4]) was inactive.
Take `C[C@H](Cn1cnc2c(N)nc(N=C(N)N)nc21)OCP(=O)(O)O`: the outcome (with Macrophage [1]; with Maize streak virus; in series [3]; in series [4]) was inactive. The Activity entry (in the series with L929; in the series on L1210; in series [2]) was “Not Active” throughout.
On to `C[C@@H](Cn1cnc2nc(N)nc(N=C(N)N)c21)OCP(=O)(O)O`, for which the result in the series on Macrophage [1] was Active. For the same molecule, the Activity result (in the series on L929; in the series with L1210; in [2]) was “Not Active” throughout. The result (in the series on Maize streak virus; in series [3]; in series [4]) was inactive.
On to `C[C@@H](Cn1cnc2nc(N=C(N)N)ncc21)OCP(=O)(O)O`, for which the result (in the series with Macrophage [1]; in the series on Maize streak virus; in series [3]; in series [4]) was inactive. For the same molecule, the Activity result (in the series with L929; in the series on L1210; in [2]) was “Not Active” each time.
As for `C[C@H](Cn1cnc2nc(N)nc(N=C(N)N)c21)OCP(=O)(O)O`, the result in the series on Macrophage [1] was Active. Further, the Activity entry (in the series on L929; in the series on L1210; in series [2]) was “Not Active” each time. Further, the result (with Maize streak virus; in series [3]; in [4]) was inactive.
`C[C@@H](Cn1cnc2c(N=C(N)N)nc(N)nc21)OCP(=O)(O)O`: the outcome in the series with Macrophage [1] was Active. Besides, the Activity result (in the series with L929; with L1210; in series [2]) was “Not Active” throughout. Further, the result (in the series on Maize streak virus; in series [3]; in [4]) was inactive.
Take `C[C@@H](Cn1cnc2ncnc(N=C(N)N)c21)OCP(=O)(O)O`: the result (with Macrophage [1]; in the series on Maize streak virus; in series [3]; in [4]) was inactive. Moreover, the Activity result (with L929; in the series with L1210; in series [2]) was “Not Active” each time.
With `C[C@@H](Cn1cnc2cnc(N=C(N)N)nc21)OCP(=O)(O)O`, the result (in the series on Macrophage [1]; in the series with Maize streak virus; in [3]; in series [4]) was inactive. Further, the Activity result (with L929; with L1210; in series [2]) was “Not Active” each time.
With `C[C@H](Cn1cnc2c(N=C(N)N)nc(N)nc21)OCP(=O)(O)O`, the outcome (in the series on Macrophage [1]; in series [5]; in the series on Macrophage [6]; in the series on Macrophage [7]; in the series with PBMC [8]; in the series on PBMC [9]) was Active. The outcome with Macrophage [10] was Active. Moreover, the Activity result (with L929; with L1210; in series [2]) was “Not Active” throughout. Moreover, the outcome (in the series with Maize streak virus; in series [3]; in [4]) was inactive.
Regarding `C[C@H](Cn1cnc2c(N=C(N)N)ncnc21)OCP(=O)(O)O`, the result (in the series with Macrophage [1]; in the series with Maize streak virus; in [3]; in series [4]) was inactive. For the same molecule, the Activity entry (in the series with L929; in the series with L1210; in series [2]) was “Not Active” throughout.
In the case of `C[C@H](Cn1cnc2nc(N=C(N)N)ncc21)OCP(=O)(O)O`, the outcome (in the series on Macrophage [1]; in the series with Maize streak virus; in [3]; in [4]) was inactive. Besides, the Activity entry (in the series with L929; in the series on L1210; in series [2]) was “Not Active” in each case.
Regarding `C[C@H](Cn1cnc2cnc(N=C(N)N)nc21)OCP(=O)(O)O`, the result (in the series on Macrophage [1]; in the series on Maize streak virus; in series [3]; in [4]) was inactive. The Activity entry (in the series with L929; in the series with L1210; in series [2]) was “Not Active” throughout.
With `C[C@H](Cn1c(N=C(N)N)nc(N)c2ncnc1-2)OCP(=O)(O)O`, the outcome in the series on Macrophage [1] was Active. Besides, the Activity entry (in the series with L929; in the series with L1210; in series [2]) was “Not Active” each time. In addition, the result (in the series on Maize streak virus; in series [3]; in [4]) was inactive.
